Article PMC8429728, “TNK1 is a ubiquitin-binding and 14-3-3-regulated kinase that can be targeted to block tumor growth” (Nature Communications, 2021)
Read-outs that look alike come from different tables or passages of the source.

Columns and labels:
Test in all cases: biochemical
Set-up in all cases: Reaction Biology 371-kinase panel at Km ATP, per cent enzyme activity relative to DMSO, single dose in duplicate
TYK2 = TYK2 (Homo sapiens, UniProt P29597); conditions: duplicate measurements, Km ATP
Outline: (§1)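 First, kinases from a 371-member panel were exposed in vitro to 300 nM inhibitor. Next, % enzyme activity versus DMSO was computed. Finally, IC50s were derived by sigmoidal dose-response fitting with variable slope and a zero bottom constraint.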

CK1g2 = target: T1, CK1g2 (Homo sapiens, UniProt P78368); conditions: duplicate measurements, Km ATP
T1 construct: gene CSNK1G2
Outline: as §1

PAK5 = PAK5 (Homo sapiens, UniProt Q9P286); conditions: duplicate measurements, Km ATP
Outline: as §1

MLK1/MAP3K9 = MLK1/MAP3K9 (Homo sapiens, UniProt P80192); conditions: duplicate measurements, Km ATP
Outline: as §1

CDK7/cyclin H = CDK7/cyclin H (Homo sapiens, UniProt P50613); conditions: duplicate measurements, Km ATP
Outline: as §1

GCK/MAP4K2 = GCK/MAP4K2 (Homo sapiens, UniProt Q12851); conditions: duplicate measurements, Km ATP
Outline: as §1

EPHA2 = EPHA2 (Homo sapiens, UniProt P29317); conditions: duplicate measurements, Km ATP
Outline: as §1

ALK3/BMPR1A = ALK3/BMPR1A (Homo sapiens, UniProt P36894); conditions: duplicate measurements, Km ATP
Outline: as §1

MEK2 = target: T2, MEK2 (Homo sapiens, UniProt P36507); conditions: duplicate measurements, Km ATP
T2 construct: gene MAP2K2
Outline: as §1

CDK2/CYCLIN E = CDK2/CYCLIN E (Homo sapiens, UniProt P24941); conditions: duplicate measurements, Km ATP
Outline: as §1

PAK3 = PAK3 (Homo sapiens, UniProt O75914); conditions: duplicate measurements, Km ATP
Outline: as §1

PAK4 = PAK4 (Homo sapiens, UniProt O96013); conditions: duplicate measurements, Km ATP
Outline: as §1

LATS2 = LATS2 (Homo sapiens, UniProt Q9NRM7); conditions: duplicate measurements, Km ATP
Outline: as §1

ERN1/IRE1 = ERN1/IRE1 (Homo sapiens, UniProt O75460); conditions: duplicate measurements, Km ATP
Outline: as §1

PAK6 = PAK6 (Homo sapiens, UniProt Q9NQU5); conditions: duplicate measurements, Km ATP
Outline: as §1

RSK4 = target: T3, RSK4 (Homo sapiens, UniProt Q9UK32); conditions: duplicate measurements, Km ATP
T3 construct: gene RPS6KA6
Outline: as §1

Aurora B = target: T4, Aurora B (Homo sapiens, UniProt Q96GD4); conditions: duplicate measurements, Km ATP
T4 construct: gene AURKB
Outline: as §1

WEE1 = WEE1 (Homo sapiens, UniProt P30291); conditions: duplicate measurements, Km ATP
Outline: as §1

DMPK2 = target: T5, DMPK2 (Homo sapiens, UniProt Q6DT37); conditions: duplicate measurements, Km ATP; read-out: % Enzyme Activity (relative to DMSO controls) / TP-0005801 (0.3µM) / Data 1
T5 construct: gene CDC42BPG
Outline: as §1

MSK2/RPS6KA4 = MSK2/RPS6KA4 (Homo sapiens, UniProt O75676); conditions: duplicate measurements, Km ATP
Outline: as §1

[1] = read-out: % Enzyme Activity (relative to DMSO controls) / TP-0005801 (0.3µM) / Data 1
[2] = read-out: % Enzyme Activity (relative to DMSO controls) / TP-0005801 (0.3µM) / Data 2

Sequence of CDK7/cyclin H (P50613 whole entry): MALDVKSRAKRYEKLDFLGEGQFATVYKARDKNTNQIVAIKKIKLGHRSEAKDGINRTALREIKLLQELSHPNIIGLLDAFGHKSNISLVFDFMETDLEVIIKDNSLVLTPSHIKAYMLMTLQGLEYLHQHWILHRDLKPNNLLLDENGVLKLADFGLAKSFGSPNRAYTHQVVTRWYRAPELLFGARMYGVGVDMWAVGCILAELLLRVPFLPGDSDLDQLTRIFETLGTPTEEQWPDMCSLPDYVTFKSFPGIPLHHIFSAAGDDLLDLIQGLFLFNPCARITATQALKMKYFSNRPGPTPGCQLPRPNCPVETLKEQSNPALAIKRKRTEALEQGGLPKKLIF
Sequence of CDK7/cyclin H (P51946 whole entry partner): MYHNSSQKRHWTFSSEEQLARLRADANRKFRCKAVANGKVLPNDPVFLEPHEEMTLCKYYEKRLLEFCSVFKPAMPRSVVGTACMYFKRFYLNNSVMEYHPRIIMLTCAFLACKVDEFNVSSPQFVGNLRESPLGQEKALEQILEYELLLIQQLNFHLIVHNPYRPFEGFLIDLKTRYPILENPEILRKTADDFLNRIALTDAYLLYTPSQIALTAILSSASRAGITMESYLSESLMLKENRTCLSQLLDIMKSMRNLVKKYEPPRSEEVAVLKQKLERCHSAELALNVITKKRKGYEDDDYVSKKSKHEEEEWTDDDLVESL
Sequence of ERN1/IRE1 (O75460 whole entry): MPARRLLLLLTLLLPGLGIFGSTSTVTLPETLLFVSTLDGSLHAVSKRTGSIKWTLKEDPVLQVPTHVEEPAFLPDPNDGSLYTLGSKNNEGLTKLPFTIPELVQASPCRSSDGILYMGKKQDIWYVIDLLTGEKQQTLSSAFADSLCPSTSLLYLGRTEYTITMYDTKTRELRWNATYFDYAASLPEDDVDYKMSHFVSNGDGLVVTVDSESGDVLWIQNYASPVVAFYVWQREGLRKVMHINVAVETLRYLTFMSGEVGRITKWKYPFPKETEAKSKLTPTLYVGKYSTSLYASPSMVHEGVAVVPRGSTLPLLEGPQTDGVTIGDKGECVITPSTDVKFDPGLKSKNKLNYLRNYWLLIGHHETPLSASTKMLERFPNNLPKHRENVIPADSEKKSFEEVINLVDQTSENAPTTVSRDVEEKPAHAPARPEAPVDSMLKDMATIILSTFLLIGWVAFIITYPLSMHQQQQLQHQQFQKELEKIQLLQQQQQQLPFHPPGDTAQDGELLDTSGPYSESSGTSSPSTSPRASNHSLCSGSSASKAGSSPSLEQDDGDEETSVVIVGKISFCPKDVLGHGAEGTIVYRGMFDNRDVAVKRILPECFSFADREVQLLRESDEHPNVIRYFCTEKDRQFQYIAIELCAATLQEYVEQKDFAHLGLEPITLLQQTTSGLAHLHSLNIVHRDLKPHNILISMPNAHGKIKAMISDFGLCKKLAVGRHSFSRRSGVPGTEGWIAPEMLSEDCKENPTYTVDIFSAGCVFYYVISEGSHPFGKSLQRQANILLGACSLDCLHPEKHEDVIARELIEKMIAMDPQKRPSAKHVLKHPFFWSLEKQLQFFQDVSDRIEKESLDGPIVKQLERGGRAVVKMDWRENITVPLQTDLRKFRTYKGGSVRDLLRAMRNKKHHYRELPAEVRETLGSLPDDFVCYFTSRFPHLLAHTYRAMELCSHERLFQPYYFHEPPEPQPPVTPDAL
Sequence of TYK2 (P29597 whole entry): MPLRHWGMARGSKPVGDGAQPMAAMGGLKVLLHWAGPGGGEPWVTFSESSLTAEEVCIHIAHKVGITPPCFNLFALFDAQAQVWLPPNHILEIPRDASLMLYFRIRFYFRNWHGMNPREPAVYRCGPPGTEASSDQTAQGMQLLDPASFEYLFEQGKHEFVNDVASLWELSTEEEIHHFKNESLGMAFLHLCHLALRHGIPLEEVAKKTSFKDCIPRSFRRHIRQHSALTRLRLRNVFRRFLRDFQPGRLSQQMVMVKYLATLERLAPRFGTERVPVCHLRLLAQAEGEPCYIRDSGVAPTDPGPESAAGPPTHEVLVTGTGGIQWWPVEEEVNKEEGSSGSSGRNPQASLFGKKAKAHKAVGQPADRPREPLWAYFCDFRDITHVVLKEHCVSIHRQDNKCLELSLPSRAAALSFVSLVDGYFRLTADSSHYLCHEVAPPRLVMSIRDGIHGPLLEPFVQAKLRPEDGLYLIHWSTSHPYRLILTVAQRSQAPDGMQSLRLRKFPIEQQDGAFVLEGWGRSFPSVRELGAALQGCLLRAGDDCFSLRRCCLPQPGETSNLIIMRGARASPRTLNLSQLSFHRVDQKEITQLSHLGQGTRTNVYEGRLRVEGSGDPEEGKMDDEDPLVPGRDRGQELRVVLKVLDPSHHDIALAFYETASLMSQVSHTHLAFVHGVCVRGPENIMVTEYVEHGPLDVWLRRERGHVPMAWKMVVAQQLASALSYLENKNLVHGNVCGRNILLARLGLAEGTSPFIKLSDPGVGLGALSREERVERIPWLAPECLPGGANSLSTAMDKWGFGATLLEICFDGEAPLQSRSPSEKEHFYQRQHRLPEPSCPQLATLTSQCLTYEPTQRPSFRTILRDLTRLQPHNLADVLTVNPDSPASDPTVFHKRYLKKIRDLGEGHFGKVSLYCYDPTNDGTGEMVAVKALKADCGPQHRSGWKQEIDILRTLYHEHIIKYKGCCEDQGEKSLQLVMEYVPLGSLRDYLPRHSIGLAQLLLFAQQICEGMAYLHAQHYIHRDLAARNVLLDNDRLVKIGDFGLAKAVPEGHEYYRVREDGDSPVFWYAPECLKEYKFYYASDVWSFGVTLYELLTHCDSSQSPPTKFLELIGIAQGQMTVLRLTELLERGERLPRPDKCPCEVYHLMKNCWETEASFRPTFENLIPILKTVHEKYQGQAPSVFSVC
T4 sequence (Q96GD4 whole entry): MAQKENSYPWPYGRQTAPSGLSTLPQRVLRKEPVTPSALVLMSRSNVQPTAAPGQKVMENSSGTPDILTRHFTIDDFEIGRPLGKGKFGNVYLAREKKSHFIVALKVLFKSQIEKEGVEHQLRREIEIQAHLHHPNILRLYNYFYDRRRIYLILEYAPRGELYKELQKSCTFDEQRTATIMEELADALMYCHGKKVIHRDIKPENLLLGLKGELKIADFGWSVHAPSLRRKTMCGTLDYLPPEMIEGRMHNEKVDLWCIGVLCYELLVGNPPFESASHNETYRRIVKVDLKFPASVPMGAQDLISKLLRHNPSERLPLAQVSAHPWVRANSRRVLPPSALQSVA
Sequence of MLK1/MAP3K9 (P80192 whole entry): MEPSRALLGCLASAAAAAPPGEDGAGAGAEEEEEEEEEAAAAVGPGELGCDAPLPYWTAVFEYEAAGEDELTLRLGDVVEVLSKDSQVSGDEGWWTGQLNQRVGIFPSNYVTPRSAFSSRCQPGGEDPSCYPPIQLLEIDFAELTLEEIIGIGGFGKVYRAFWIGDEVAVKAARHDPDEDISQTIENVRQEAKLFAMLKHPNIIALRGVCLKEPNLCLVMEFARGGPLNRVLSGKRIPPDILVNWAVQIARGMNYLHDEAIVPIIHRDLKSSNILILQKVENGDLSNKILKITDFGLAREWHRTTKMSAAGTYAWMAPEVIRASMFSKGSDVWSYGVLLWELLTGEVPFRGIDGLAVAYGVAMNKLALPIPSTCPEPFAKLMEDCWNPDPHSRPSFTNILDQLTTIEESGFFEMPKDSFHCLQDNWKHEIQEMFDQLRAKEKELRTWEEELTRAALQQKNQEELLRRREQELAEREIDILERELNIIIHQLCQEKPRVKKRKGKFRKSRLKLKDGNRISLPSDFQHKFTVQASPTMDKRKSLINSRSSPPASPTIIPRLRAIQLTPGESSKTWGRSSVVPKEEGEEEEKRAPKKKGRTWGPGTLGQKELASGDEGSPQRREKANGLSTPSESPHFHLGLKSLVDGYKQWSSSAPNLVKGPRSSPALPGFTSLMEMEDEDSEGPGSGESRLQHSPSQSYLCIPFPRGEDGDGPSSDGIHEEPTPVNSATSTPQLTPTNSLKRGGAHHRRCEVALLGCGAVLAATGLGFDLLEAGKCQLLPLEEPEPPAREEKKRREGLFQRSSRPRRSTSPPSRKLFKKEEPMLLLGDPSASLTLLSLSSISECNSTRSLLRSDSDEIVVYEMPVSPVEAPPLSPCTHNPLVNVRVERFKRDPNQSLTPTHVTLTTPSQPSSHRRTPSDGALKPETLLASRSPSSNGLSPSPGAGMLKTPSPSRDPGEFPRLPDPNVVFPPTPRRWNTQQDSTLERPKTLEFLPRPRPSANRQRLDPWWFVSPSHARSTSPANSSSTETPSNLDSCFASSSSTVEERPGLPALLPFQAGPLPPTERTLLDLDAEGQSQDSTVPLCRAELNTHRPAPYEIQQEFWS
T3 sequence (Q9UK32 whole entry): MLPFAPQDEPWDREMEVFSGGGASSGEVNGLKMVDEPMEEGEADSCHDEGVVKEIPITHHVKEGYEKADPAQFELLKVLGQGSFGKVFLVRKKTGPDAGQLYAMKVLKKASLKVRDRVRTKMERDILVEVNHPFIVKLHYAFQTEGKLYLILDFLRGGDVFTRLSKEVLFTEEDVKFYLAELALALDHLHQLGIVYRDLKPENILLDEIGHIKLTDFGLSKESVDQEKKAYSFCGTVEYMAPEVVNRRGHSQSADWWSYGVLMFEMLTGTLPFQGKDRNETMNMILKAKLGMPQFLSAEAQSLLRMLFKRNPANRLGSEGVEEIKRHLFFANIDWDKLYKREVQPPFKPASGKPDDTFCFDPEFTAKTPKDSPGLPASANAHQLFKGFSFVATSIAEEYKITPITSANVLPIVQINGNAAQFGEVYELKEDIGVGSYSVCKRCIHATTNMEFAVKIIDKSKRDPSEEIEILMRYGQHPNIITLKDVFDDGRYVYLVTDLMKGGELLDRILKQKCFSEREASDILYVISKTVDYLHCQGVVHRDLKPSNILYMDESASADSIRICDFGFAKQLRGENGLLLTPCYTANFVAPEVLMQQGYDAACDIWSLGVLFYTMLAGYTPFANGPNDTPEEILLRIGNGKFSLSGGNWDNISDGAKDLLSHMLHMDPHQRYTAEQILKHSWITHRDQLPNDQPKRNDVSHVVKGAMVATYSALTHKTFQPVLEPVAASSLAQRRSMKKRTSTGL

SMILES: COc1cc(N2CCN(C)CC2)c(C)cc1Nc1ncc(Br)c(Nc2cccnc2N(C)C)n1 [TP-5801]
- remaining activity at 0.3 µM (TYK2; [1]): 100%
- remaining activity at 0.3 µM (TYK2; [2]): 96.7%
- remaining activity at 0.3 µM (CK1g2; [1]): 94.5%
- remaining activity at 0.3 µM (CK1g2; [2]): 92.9%
- remaining activity at 0.3 µM (PAK5; [1]): 86.5%
- remaining activity at 0.3 µM (PAK5; [2]): 85.3%
- remaining activity at 0.3 µM (MLK1/MAP3K9; [1]): 77.2%
- remaining activity at 0.3 µM (MLK1/MAP3K9; [2]): 76.6%
- remaining activity at 0.3 µM (CDK7/cyclin H; [1]): 103%
- remaining activity at 0.3 µM (CDK7/cyclin H; [2]): 101%
- remaining activity at 0.3 µM (GCK/MAP4K2; [1]): 76.1%
- remaining activity at 0.3 µM (GCK/MAP4K2; [2]): 73.9%
- remaining activity at 0.3 µM (EPHA2; [1]): 98.3%
- remaining activity at 0.3 µM (EPHA2; [2]): 95.9%
- remaining activity at 0.3 µM (ALK3/BMPR1A; [1]): 105%
- remaining activity at 0.3 µM (ALK3/BMPR1A; [2]): 100%
- remaining activity at 0.3 µM (MEK2; [1]): 87.6%
- remaining activity at 0.3 µM (MEK2; [2]): 87.4%
- remaining activity at 0.3 µM (CDK2/CYCLIN E; [1]): 91.7%
- remaining activity at 0.3 µM (CDK2/CYCLIN E; [2]): 91.2%
- remaining activity at 0.3 µM (PAK3; [1]): 99%
- remaining activity at 0.3 µM (PAK3; [2]): 97.9%
- remaining activity at 0.3 µM (PAK4; [1]): 59.4%
- remaining activity at 0.3 µM (PAK4; [2]): 54.7%
- remaining activity at 0.3 µM (LATS2; [1]): 95.8%
- remaining activity at 0.3 µM (LATS2; [2]): 92.4%
- remaining activity at 0.3 µM (ERN1/IRE1; [1]): 83%
- remaining activity at 0.3 µM (ERN1/IRE1; [2]): 82.7%
- remaining activity at 0.3 µM (PAK6; [1]): 107%
- remaining activity at 0.3 µM (PAK6; [2]): 105%
- remaining activity at 0.3 µM (RSK4; [1]): 79.4%
- remaining activity at 0.3 µM (RSK4; [2]): 77.9%
- remaining activity at 0.3 µM (Aurora B; [1]): 86.7%
- remaining activity at 0.3 µM (Aurora B; [2]): 83.9%
- remaining activity at 0.3 µM (WEE1; [1]): 94.2%
- remaining activity at 0.3 µM (WEE1; [2]): 93.6%
- remaining activity at 0.3 µM (DMPK2): 109%
- remaining activity at 0.3 µM (MSK2/RPS6KA4; [1]): 99%
- remaining activity at 0.3 µM (MSK2/RPS6KA4; [2]): 95%
